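Grown in 96-well plates, cells were treated for 48 hours with each compound at five concentrations. Insufficient inhibition: endpoint recorded as highest concentration tested. TGI: concentration producing complete growth inhibition.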
Key:
Assay in all cases: NCI tumour cell line growth inhibition, 48 h
786-0 renal = tested on: 786-0 renal
A498 renal = tested on: A498 renal
A549 NSCLC = tested on: A549 NSCLC
ACHN renal = tested on: ACHN renal
CAKI-1 renal = tested on: CAKI-1 renal
CCRF-CEM leukemia = tested on: CCRF-CEM leukemia
COLO 205 colon = tested on: COLO 205 colon
DU-145 prostate = tested on: DU-145 prostate
EKVX NSCLC = tested on: EKVX NSCLC
HCC-2998 colon = tested on: HCC-2998 colon
HCT-15 colon = tested on: HCT-15 colon
HL-60(TB) leukemia = tested on: HL-60(TB) leukemia
HOP-62 NSCLC = tested on: HOP-62 NSCLC
HOP-92 NSCLC = tested on: HOP-92 NSCLC
HS 578T breast = tested on: HS 578T breast
HT29 colon = tested on: HT29 colon
IGROV1 ovarian = tested on: IGROV1 ovarian
K-562 leukemia = tested on: K-562 leukemia
KM12 colon = tested on: KM12 colon
LOX IMVI melanoma = tested on: LOX IMVI melanoma
M14 melanoma = tested on: M14 melanoma
MALME-3M melanoma = tested on: MALME-3M melanoma
MCF7 breast = tested on: MCF7 breast
MDA-MB-231 breast = tested on: MDA-MB-231 breast
MDA-MB-435 = tested on: MDA-MB-435
MDA-N = tested on: MDA-N
MOLT-4 leukemia = tested on: MOLT-4 leukemia
NCI-H226 lung = tested on: NCI-H226 lung
NCI-H23 lung = tested on: NCI-H23 lung
NCI-H460 lung = tested on: NCI-H460 lung
NCI-H522 lung = tested on: NCI-H522 lung
NCI/ADR-RES ovarian = tested on: NCI/ADR-RES ovarian
OVCAR-3 ovarian = tested on: OVCAR-3 ovarian
OVCAR-4 ovarian = tested on: OVCAR-4 ovarian
OVCAR-5 ovarian = tested on: OVCAR-5 ovarian
OVCAR-8 ovarian = tested on: OVCAR-8 ovarian
PC-3 prostate = tested on: PC-3 prostate
RPMI-8226 leukemia = tested on: RPMI-8226 leukemia
RXF 393 renal = tested on: RXF 393 renal
SF-268 CNS = tested on: SF-268 CNS
SF-295 CNS = tested on: SF-295 CNS
SF-539 CNS = tested on: SF-539 CNS
SK-MEL-2 melanoma = tested on: SK-MEL-2 melanoma
SK-MEL-28 melanoma = tested on: SK-MEL-28 melanoma
SK-MEL-5 melanoma = tested on: SK-MEL-5 melanoma
SK-OV-3 ovarian = tested on: SK-OV-3 ovarian
SNB-19 CNS = tested on: SNB-19 CNS
SNB-75 CNS = tested on: SNB-75 CNS
SR leukemia = tested on: SR leukemia
SW-620 colon = tested on: SW-620 colon
T-47D breast = tested on: T-47D breast
TK-10 renal = tested on: TK-10 renal
U251 CNS = tested on: U251 CNS
UACC-257 melanoma = tested on: UACC-257 melanoma
UACC-62 melanoma = tested on: UACC-62 melanoma
UO-31 renal = tested on: UO-31 renal
BT-549 breast = tested on: BT-549 breast
HCT-116 colon = tested on: HCT-116 colon
SN12C renal = tested on: SN12C renal

Measured: TGI

COC(=O)[C@@H]1OC(C)(c2ccccc2)O[C@H]1C(=O)OC
not listed: BT-549 breast | HCT-116 colon | SN12C renal
> 100 µM: all other assays above

Cn1c(=O)c2c(nc(NCCNc3nc4c(c(=O)n(C)c(=O)n4C)n3C)n2C)n(C)c1=O
not listed: COLO 205 colon | HL-60(TB) leukemia | MCF7 breast | RPMI-8226 leukemia | SF-539 CNS | SK-OV-3 ovarian
> 100 µM: all other assays above

Reference: PubChem BioAssay (NCI)
